Patent US9828369B2, “Isoquinoline derivatives useful as inhibitors of diacylglyceride O-acyltransferase 2” (Merck Sharp & Dohme Corp., priority 2014, dated 2017)

Biological target: hDGAT2 (Homo sapiens (Human), UniProt Q96PD7)
Experiment: DGAT2 enzymatic activity assay (triolein formation, LC/MS/MS)
Settings: read-out: IC50 values for inhibition of DGAT2; membrane prep of Sf-9 cells expressing hDGAT2; 25 μM diolein, 10 μM oleoyl-CoA; room temperature; triolein by LC/MS/MS

Chain of hDGAT2 (Q96PD7 whole entry): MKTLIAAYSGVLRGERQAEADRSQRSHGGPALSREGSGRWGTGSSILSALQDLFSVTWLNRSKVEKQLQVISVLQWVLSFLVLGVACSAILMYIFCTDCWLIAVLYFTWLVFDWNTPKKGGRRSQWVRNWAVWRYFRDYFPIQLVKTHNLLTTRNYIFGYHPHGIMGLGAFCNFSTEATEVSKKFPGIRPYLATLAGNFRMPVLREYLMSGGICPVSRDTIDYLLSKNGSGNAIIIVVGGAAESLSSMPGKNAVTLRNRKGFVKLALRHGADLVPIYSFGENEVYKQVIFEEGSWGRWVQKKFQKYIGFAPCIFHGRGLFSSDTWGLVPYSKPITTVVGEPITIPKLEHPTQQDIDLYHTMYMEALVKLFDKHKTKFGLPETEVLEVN

IC50 [nM] | SMILES
5890 | COc1cccc(-c2ccc(CNC(=O)c3cncc(C(F)(F)F)c3)c3cnccc23)c1 [Example 119, N-((5-(3-methoxyphenyl)isoquinolin-8-yl)methyl)-5-(trifluoromethyl)nicotinamide]
4240 | COc1cccc(-c2ccc(CNC(=O)c3cc(Br)cnc3-c3ccccc3)c3cnccc23)c1 [Example 120, 5-bromo-N-((5-(3-methoxyphenyl)isoquinolin-8-yl)methyl)-2-phenylnicotinamide]
1180 | COc1cccc(-c2ccc(CNC(=O)c3cc(Br)cnc3C(F)(F)F)c3cnccc23)c1 [Example 121, 5-bromo-N-((5-(3-methoxyphenyl)isoquinolin-8-yl)methyl)-2-(trifluoromethyl)nicotinamide]
513 | COc1cccc(-c2ccc(CNC(=O)C3(c4ccc(C(F)(F)F)cc4)CCC3)c3cnccc23)c1 [Example 123, N-((5-(3-methoxyphenyl)isoquinolin-8-yl)methyl)-1-(4-(trifluoromethyl)phenyl)cyclobutanecarboxamide]
2330 | COc1cccc(-c2ccc(CNC(=O)C(F)c3ccc(C(F)(F)F)cc3)c3cnccc23)c1 (centres unmarked) [Example 124, 2-fluoro-N-((5-(3-methoxyphenyl)isoquinolin-8-yl)methyl)-2-(4-(trifluoromethyl)phenyl)acetamide]
2460 | COc1cccc(-c2ccc(CNC(=O)C(c3ccc(C(F)(F)F)cc3)C(C)C)c3cnccc23)c1 (centres unmarked) [Example 125, N-((5-(3-methoxyphenyl)isoquinolin-8-yl)methyl)-3-methyl-2-(4-(trifluoromethyl)phenyl)butanamide]
1420 | COc1cccc(-c2ccc(CNC(=O)c3cnccc3C(F)(F)F)c3cnccc23)c1 [Example 127, N-((5-(3-methoxyphenyl)isoquinolin-8-yl)methyl)-4-(trifluoromethyl)nicotinamide]
952 | COc1cccc(-c2ccc(CNC(=O)C3CCN(c4ccc(C(F)(F)F)cc4)CC3)c3cnccc23)c1 [Example 128, N-((5-(3-methoxyphenyl)isoquinolin-8-yl)methyl)-1-(4-(trifluoromethyl)phenyl)piperidine-4-carboxamide]
2990 | COc1cccc(-c2ccc(CNC(=O)c3cncc(-c4ccccc4)c3)c3cnccc23)c1 [Example 129, N-((5-(3-methoxyphenyl)isoquinolin-8-yl)methyl)-5-phenylnicotinamide]
268 | COc1cccc(-c2ccc(CNC(=O)C34CC(C3)C4)c3cnccc23)c1 [Example 130, N-((5-(3-methoxyphenyl)isoquinolin-8-yl)methyl)bicyclo[1.1.1]pentane-1-carboxamide]
400 | COc1cccc(-c2ccc(CNC(=O)c3cc(Br)cnc3F)c3cnccc23)c1 [Example 131, 5-bromo-2-fluoro-N-((5-(3-methoxyphenyl)isoquinolin-8-yl)methyl)nicotinamide]
3940 | COc1cccc(-c2ccc(CNC(=O)c3cnn(-c4ccccc4)c3C(F)(F)F)c3cnccc23)c1 [Example 132, N-((5-(3-methoxyphenyl)isoquinolin-8-yl)methyl)-1-phenyl-5-(trifluoromethyl)-1H-pyrazole-4-carboxamide]
571 | COc1cccc(-c2ccc(CNC(=O)c3ccnc(C(F)(F)F)c3)c3cnccc23)c1 [Example 133, N-((5-(3-methoxyphenyl)isoquinolin-8-yl)methyl)-2-(trifluoromethyl)isonicotinamide]
324 | COc1cccc(-c2ccc(CNC(=O)C(C)c3ccc(-c4ccccc4)cc3)c3cnccc23)c1 (centres unmarked) [Example 134, 2-([1,1′-biphenyl]-4-yl)-N-((5-(3-methoxyphenyl)isoquinolin-8-yl)methyl)propanamide]
2000 | COc1cccc(-c2ccc(CNC(=O)C(C)c3cccc(F)c3)c3cnccc23)c1 (centres unmarked) [Example 135, 2-(3-fluorophenyl)-N-((5-(3-methoxyphenyl)isoquinolin-8-yl)methyl)propanamide]
256 | COc1cccc(-c2ccc(CNC(=O)C(C)c3ccc(C#N)cc3)c3cnccc23)c1 (centres unmarked) [Example 136, 2-(4-cyanophenyl)-N-((5-(3-methoxyphenyl)isoquinolin-8-yl)methyl)propanamide]
484 | COc1cccc(-c2ccc(CNC(=O)C(C)c3ccc(OC(F)(F)F)cc3)c3cnccc23)c1 (centres unmarked) [Example 137, N-((5-(3-methoxyphenyl)isoquinolin-8-yl)methyl)-2-(4-(trifluoromethoxy)phenyl)propanamide]
298 | COc1cccc(-c2ccc(CNC(=O)C(C)c3ccccc3)c3cnccc23)c1 (centres unmarked) [Example 138, N-((5-(3-methoxyphenyl)isoquinolin-8-yl)methyl)-2-phenylpropanamide]
213 | COc1cccc(-c2ccc(CNC(=O)C(C)c3ccccc3F)c3cnccc23)c1 (centres unmarked) [Example 139, 2-(2-fluorophenyl)-N-((5-(3-methoxyphenyl)isoquinolin-8-yl)methyl)propanamide]
566 | COc1cccc(-c2ccc(CNC(=O)C(C)c3ccc(C(F)(F)F)cc3)c3cnccc23)c1 (centres unmarked) [Example 141, N-((5-(3-methoxyphenyl)isoquinolin-8-yl)methyl)-2-(4-(trifluoromethyl)phenyl)propanamide]
197 | COc1cccc(-c2ccc(CNC(=O)C(C)c3ccc4cc(OC)ccc4c3)c3cnccc23)c1 (centres unmarked) [Example 143, 2-(6-methoxynaphthalen-2-yl)-N-((5-(3-methoxyphenyl)isoquinolin-8-yl)methyl)propanamide]
6890 | COc1cccc(-c2ccc(CNC(=O)C(C)c3ccc(C4CCCCC4)c(Cl)c3)c3cnccc23)c1 (centres unmarked) [Example 148, 2-(3-chloro-4-cyclohexylphenyl)-N-((5-(3-methoxyphenyl)isoquinolin-8-yl)methyl)propanamide]
426 | COc1cccc(-c2ccc(CNC(=O)Cc3ccc(C(F)(F)F)cc3)c3ncccc23)c1 [Example 150, N-((5-(3-methoxyphenyl)quinolin-8-yl)methyl)-2-(4-(trifluoromethyl)phenyl)acetamide]
938 | COc1cccc(-c2ccc(CNC(=O)Nc3ccc(OC(F)(F)F)cc3)c3cnccc23)c1 [Example 151, 1-((5-(3-methoxyphenyl)isoquinolin-8-yl)methyl)-3-(4-(trifluoromethoxy)phenyl)urea]
198 | COc1cc(OC)cc(-c2ccc(CNC(=O)Nc3cccc(Cl)c3Cl)c3cnccc23)c1 [Example 152, 1-(2,3-dichlorophenyl)-3-((5-(3,5-dimethoxyphenyl)isoquinolin-8-yl)methyl)urea]
1110 | COC(=O)c1ccccc1NC(=O)NCc1ccc(-c2cccc(OC)c2)c2ccncc12 [Example 153, methyl 2-(3-((5-(3-methoxyphenyl)isoquinolin-8-yl)methyl)ureido)benzoate]
3270 | COc1cccc(-c2ccc(CNC(=O)c3ccn(C)n3)c3cnccc23)c1 [Example 154, N-((5-(3-methoxyphenyl)isoquinolin-8-yl)methyl)-1-methyl-1H-pyrazole-3-carboxamide]
116 | COc1cccc(-c2ccc(CNC(=O)Nc3cccc(-c4ccccc4)c3)c3cnccc23)c1 [Example 157, 1-([1,1′-biphenyl]-3-yl)-3-((5(3-methoxyphenyl)isoquinolin-8-yl)methyl)urea]
374 | C=C(c1ccccc1)c1ccc(CNC(=O)Nc2cccc(Cl)c2Cl)c2cnccc12 [Example 158, 1-(2,3-dichlorophenyl)-3-((5-(1-phenylyinyl)isoquinolin-8-yl)methyl)urea]
